From patent US8674113B2, “Compounds” (Boehringer Ingelheim International GmbH, priority 2010, dated 2014)
Where two headings read alike, the source gives them in different places.

Target: mPGES-1 in A549 cells (Homo sapiens (Human), UniProt O14684)
Test: A549 cell-based assay (PGE2 formation, 50% human serum)
Procedure: Although the enzymatic assay is a high throughput assay the disadvantage is that it uses a recombinant protein which is not in its natural environment. Accordingly a cellular assay was established in which a cell line of human origin (A549) expressing the mPGES-1 protein was used. In addition in order to mimic the situation in humans in which compounds can be bound to plasma proteins 50% human serum is added in the assay.
A549 cells (ATCC: CCL-185) are grown to about 90% confluence in F-12K Nutrient Mixture (Kaighn's Mod. Gibco) containing 10% FBS in a humified incubator at 37° C. and 5% CO2. Cells were detached using Trypsin-EDTA. A549 cells were seeded in a 384-well collagene plate at a density of 7000 cells/well (50 μl) in F-12 medium containing 1% Penicillin-Streptomycin and 50% human serum. The cells were allowed to attach for 3-4 h. After that the cells were incubated for 20-24 h in F-12k medium supplemented with 50% human serum, 1% Penicillin-Streptomycin and containing IL-1β at a final concentration of 5 ng/ml as well as 10 nM arachidonic acid in the presence of a vehicle or a test compound. The total volume is 100 μl.
Concentrations of PGE2 in the cell free medium (10 μl) were measured using a commercially available HTRF kit from Cisbio (as described above). The PGE2 formation in the absence of test compound was taken as 100%.
IC50 values were derived from at 6-8 point titrations using conventional software.

[1] = IL-1β 5 ng/ml, 10 nM arachidonic acid, 20-24 h, read-out: mPGES-1 inhibitory effect IC50 in the cell assay

Sequence of mPGES-1 in A549 cells (O14684 whole entry): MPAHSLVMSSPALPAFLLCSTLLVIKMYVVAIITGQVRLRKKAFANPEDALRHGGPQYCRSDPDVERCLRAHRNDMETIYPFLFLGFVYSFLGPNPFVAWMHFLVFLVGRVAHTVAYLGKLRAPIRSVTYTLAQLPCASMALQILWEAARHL

Cn1c(Nc2c(Cl)ccc(CNC(=O)C(C)(C)C)c2F)nc2cc(C(=O)N[C@H]3CC[C@H](C(F)(F)F)CC3)c(N3CCC(C(F)(F)F)C3)cc21 (stereo partly shown) [Example 6]
IC50 [1]: 4 nM

Cn1c(Nc2c(Cl)ccc(CNC(=O)C(C)(C)C)c2Cl)nc2cc(C(=O)NC3CC(F)(F)C3)c(NCC(F)F)cc21 [Example 16]
IC50 [1]: 197 nM

Cn1c(Nc2c(Cl)ccc(CNC(=O)C(C)(C)C)c2Cl)nc2cc(C(=O)N[C@H]3CC[C@H](C(F)(F)F)CC3)c(N3CCC(F)(F)C3)cc21 [Example 20, N-(trans-4-Trifluoromethyl-cyclohexyl)-2-{2,6-dichloro-3-[(2,2-dimethyl-propionylamino)-methyl]-phenylamino}-6-[3,3-difluoro-pyrrolidinyl]-1-methyl-1H-benzimidazole-5-carboxylic acid amide]
IC50 [1]: 1 nM | IC50 (Table C comparison of selected benzimidazoles, read-out: Cell IC50): 1 nM

Cn1c(Nc2c(Cl)ccc(CNC(=O)C(C)(C)C)c2Cl)nc2cc(C(=O)N[C@H]3CC[C@H](C(F)(F)F)CC3)c(N3CCC(C(F)(F)F)CC3)cc21 [Example 52, N-(trans-4-Trifluoromethyl-cyclohexyl)-2-{2,6-dichloro-3-[(2,2-dimethyl-propionylamino)-methyl]-phenylamino}-6-[4-trifluoromethyl-piperidinyl]-1-methyl-1H-benzimidazole-5-carboxylic acid amide]
IC50 [1]: < 1 nM

CC(C)(C)C(=O)NCc1ccc(Cl)c(Nc2nc3cc(C(=O)N[C@H]4CC[C@H](C(F)(F)F)CC4)c(N4CCOCC4)cc3n2CC(F)F)c1Cl [Example 71, N-(trans-4-Trifluoromethyl-cyclohexyl)-2-{2,6-dichloro-3-[(2,2-dimethyl-propionylamino)-methyl]-phenylamino}-6-[morpholin-1-yl]-(2,2-difluoroethyl)-benzimidazole-5-carboxylic acid amide]
IC50 (mPGES-1 inhibitory effect IC50 in the cell assay, IL-1β 5 ng/ml, 10 nM arachidonic acid, 20-24 h): < 1 nM

CC(C)(C)C(=O)NCc1ccc(Cl)c(Nc2nc3cc(C(=O)Nc4ccc(OC(F)(F)F)cc4)c(N4CC[C@@H](F)C4)cc3n2CC(F)F)c1Cl [Example 77, (R)—N-(4-Trifluoromethoxy-phenyl)-2-{2,6-dichloro-3-[(2,2-dimethyl-propionylamino)-methyl]-phenylamino}-6-[3-fluoro-pyrrolidinyl]-1-(2,2-difluorethyl)-1H-benzimidazole-5-carboxylic acid amide]
IC50 [1]: 2 nM

CN(Cc1nnc[nH]1)c1cc2c(cc1C(=O)N[C@H]1CC[C@H](C(F)(F)F)CC1)nc(Nc1c(Cl)ccc(CNC(=O)C(C)(C)C)c1Cl)n2C [Example 114]
IC50 [1]: 3.5 nM

Cc1n[nH]c(CN(C)c2cc3c(cc2C(=O)N[C@H]2CC[C@H](C(F)(F)F)CC2)nc(Nc2c(Cl)ccc(CNC(=O)C(C)(C)F)c2Cl)n3C)n1 [Example 115]
IC50 [1]: 2 nM

CN(Cc1ncnn1C)c1cc2c(cc1C(=O)N[C@H]1CC[C@H](C(F)(F)F)CC1)nc(Nc1c(Cl)ccc(CNC(=O)C(C)(C)C)c1Cl)n2C [Example 116]
IC50 [1]: 80 nM

Cn1c(Nc2c(Cl)ccc(CNC(=O)C(C)(C)F)c2Cl)nc2cc(C(=O)N[C@H]3CC[C@H](C(F)(F)F)CC3)c(N3CCC4(CC3)CC4)cc21 [Example 123]
IC50 [1]: 1 nM

Cn1c(Nc2c(Cl)ccc(CNC(=O)C(C)(C)F)c2Cl)nc2cc(C(=O)N[C@H]3CC[C@H](C(F)(F)F)CC3)c(N3CCC(C(C)(C)O)CC3)cc21 [Example 124]
IC50 [1]: 2 nM

Cn1c(Nc2c(Cl)ccc(CNC(=O)C(C)(C)C)c2Cl)nc2cc(C(=O)N[C@H]3CC[C@H](C(F)(F)F)CC3)c(N3CCC(F)CC3)cc21 [Example 125]
IC50 [1]: 1.4 nM

Cn1c(Nc2c(Cl)ccc(CNC(=O)C(C)(C)F)c2Cl)nc2cc(C(=O)Nc3ccc(OC(F)(F)F)cc3)c(N3CCOCC3)cc21 [Example 142]
IC50 [1]: 2 nM

Cc1n[nH]c(CN(C)c2cc3c(cc2C(=O)Nc2ccc(OC(F)(F)F)cc2)nc(Nc2c(Cl)ccc(CNC(=O)C(C)(C)F)c2Cl)n3C)n1 [Example 143]
IC50 [1]: 2.6 nM

Cn1c(Nc2c(Cl)ccc(CNC(=O)C(C)(C)F)c2Cl)nc2cc(C(=O)N[C@H]3CC[C@H](C(F)(F)F)CC3)c(N3CCOCC3)cc21 [Example 146]
IC50 [1]: < 1 nM

Cn1c(Nc2c(Cl)ccc(CNC(=O)C(C)(C)F)c2Cl)nc2cc(C(=O)NCCC(F)(F)F)c(N3CCC4(CC3)CC4)cc21 [Example 147]
IC50 [1]: 2 nM

Cn1c(Nc2c(Cl)ccc(CNC(=O)C(C)(C)C)c2Cl)nc2cc(C(=O)NCC(F)(F)C(F)(F)F)c(N3CCC(F)CC3)cc21 [Example 151]
IC50 [1]: 1.4 nM

Cc1n[nH]c(CN(C)c2cc3c(cc2C(=O)NCC(F)(F)C(F)(F)F)nc(Nc2c(Cl)ccc(CNC(=O)C(C)(C)F)c2Cl)n3C)n1 [Example 152]
IC50 [1]: 17 nM

Cn1c(Nc2c(Cl)ccc(CNC(=O)C(C)(C)F)c2Cl)nc2cc(C(=O)NCC(F)(F)C(F)(F)F)c(N3CCOCC3)cc21 [Example 153]
IC50 [1]: 4.6 nM

Cn1c(Nc2c(Cl)ccc(CNC(=O)C(C)(C)C)c2Cl)nc2cc(C(=O)N[C@H]3CC[C@@H](C(F)(F)F)CC3)c(N3CC4CC4C3)cc21 (stereo partly shown) [Example 155]
IC50 [1]: 6 nM

Cn1c(Nc2c(Cl)ccc(CNC(=O)C(C)(C)C)c2Cl)nc2cc(C(=O)Nc3cc(C(C)(C)C)no3)c(N3CCC(C(F)(F)F)CC3)cc21 [Example 157]
IC50 [1]: 1 nM

CC(C)(O)Cn1c(Nc2c(Cl)ccc(CNC(=O)C(C)(C)C)c2Cl)nc2cc(C(=O)Nc3ccc(OC(F)(F)F)cc3)c(N3CCC(C(F)(F)F)CC3)cc21 [Example 167]
IC50 [1]: 2.4 nM

CC(C)(C)C(=O)NCc1ccc(Cl)c(Nc2nc3cc(C(=O)Nc4ccc(OC(F)(F)F)cc4)c(N4CCC(C(F)(F)F)CC4)cc3n2CCC(N)=O)c1Cl [Example 169]
IC50 [1]: 5 nM

CC(C)(C)C(=O)NCc1ccc(Cl)c(Nc2nc3cc(C(=O)N[C@H]4CC[C@H](C(F)(F)F)CC4)c(N4CCOCC4)cc3n2CCC(N)=O)c1Cl [Example 170]
IC50 [1]: 110 nM

CC(C)(C)C(=O)NCc1ccc(Cl)c(Nc2nc3cc(C(=O)N[C@H]4CC[C@H](C(F)(F)F)CC4)c(N4CCC(C(F)(F)F)CC4)cc3n2CCC(N)=O)c1Cl [Example 171]
IC50 [1]: 6 nM

Cn1c(Nc2c(Cl)ccc(CNC(=O)c3cccc[n+]3[O-])c2Cl)nc2cc(C(=O)NCCC(F)(F)F)c(N3CCC(C(F)(F)F)CC3)cc21 [Example 174]
IC50 [1]: > 100 nM

Cn1nc(C(=O)NCc2ccc(Cl)c(Nc3nc4cc(C(=O)NCCC(F)(F)F)c(N5CCC(C(F)(F)F)CC5)cc4n3C)c2Cl)cc1N [Example 180]
IC50 [1]: > 100 nM

Cn1c(Nc2c(Cl)ccc(CNC(=O)c3cc(CO)ccn3)c2Cl)nc2cc(C(=O)NCCC(F)(F)F)c(N3CCC(C(F)(F)F)CC3)cc21 [Example 181]
IC50 [1]: > 100 nM

Cn1c(Nc2c(Cl)ccc(CNC(=O)c3n[nH]c4c3CCC4)c2Cl)nc2cc(C(=O)NCCC(F)(F)F)c(N3CCC(C(F)(F)F)CC3)cc21 [Example 183]
IC50 [1]: > 100 nM

Cn1c(Nc2c(Cl)ccc(CNC(=O)c3cc[nH]n3)c2Cl)nc2cc(C(=O)NCCC(F)(F)F)c(N3CCC(C(F)(F)F)CC3)cc21 [Example 184]
IC50 [1]: > 100 nM

Cn1c(Nc2c(Cl)ccc(CNC(=O)C3(C)CC3)c2Cl)nc2cc(C(=O)N[C@H]3CC[C@H](C(F)(F)F)CC3)c(N3CC4CC4C3)cc21 (stereo partly shown) [Example 187]
IC50 [1]: 1 nM

Cn1c(Nc2c(Cl)ccc(CNC(=O)C3(C(F)(F)F)CC3)c2Cl)nc2cc(C(=O)N[C@H]3CC[C@H](C(F)(F)F)CC3)c(N3CC4CC4C3)cc21 (stereo partly shown) [Example 188]
IC50 [1]: 1 nM

Cn1c(Nc2c(Cl)ccc(CNC(=O)C3(O)CC3)c2Cl)nc2cc(C(=O)N[C@H]3CC[C@H](C(F)(F)F)CC3)c(N3CC4CC4C3)cc21 (stereo partly shown) [Example 189]
IC50 [1]: 3 nM

Cn1c(Nc2c(Cl)ccc(CNC(=O)C(C)(C)O)c2Cl)nc2cc(C(=O)N[C@H]3CC[C@H](C(F)(F)F)CC3)c(N3CC4CC4C3)cc21 (stereo partly shown) [Example 190]
IC50 [1]: 9 nM

Cn1c(Nc2c(Cl)ccc(CNC(=O)C(C)(C)F)c2Cl)nc2cc(C(=O)N[C@H]3CC[C@H](C(F)(F)F)CC3)c(N3CC4CC4C3)cc21 (stereo partly shown) [Example 191]
IC50 [1]: 2 nM

Cn1c(Nc2c(Cl)ccc(CNC(=O)[C@@](C)(O)C(F)(F)F)c2Cl)nc2cc(C(=O)N[C@H]3CC[C@H](C(F)(F)F)CC3)c(N3CC4CC4C3)cc21 (stereo partly shown) [Example 192]
IC50 [1]: 1 nM

Cn1c(Nc2c(Cl)ccc(CNC(=O)[C@@](C)(O)C(F)(F)F)c2Cl)nc2cc(C(=O)N[C@H]3CC[C@H](C(F)(F)F)CC3)c(N3CC4CC4C3)cc21 (stereo partly shown) [Example 193]
IC50 [1]: 2.5 nM

Cn1c(Nc2c(Cl)ccc(CNC(=O)C(C)(C)CO)c2Cl)nc2cc(C(=O)N[C@H]3CC[C@H](C(F)(F)F)CC3)c(N3CC4CC4C3)cc21 (stereo partly shown) [Example 194]
IC50 [1]: 2.1 nM

CN(C)c1ccnc(C(=O)NCc2ccc(Cl)c(Nc3nc4cc(C(=O)N[C@H]5CC[C@H](C(F)(F)F)CC5)c(N5CC6CC6C5)cc4n3C)c2Cl)c1 (stereo partly shown) [Example 195]
IC50 [1]: 51 nM

Cc1ccnc(C(=O)NCc2ccc(Cl)c(Nc3nc4cc(C(=O)N[C@H]5CC[C@H](C(F)(F)F)CC5)c(N5CC6CC6C5)cc4n3C)c2Cl)c1 (stereo partly shown) [Example 196]
IC50 [1]: 9 nM

CNc1cncc(C(=O)NCc2ccc(Cl)c(Nc3nc4cc(C(=O)N[C@H]5CC[C@H](C(F)(F)F)CC5)c(N5CC6CC6C5)cc4n3C)c2Cl)c1 (stereo partly shown) [Example 198]
IC50 [1]: > 100 nM

Cc1ccc(C(=O)NCc2ccc(Cl)c(Nc3nc4cc(C(=O)N[C@H]5CC[C@H](C(F)(F)F)CC5)c(N5CC6CC6C5)cc4n3C)c2Cl)nc1C (stereo partly shown) [Example 199]
IC50 [1]: 8 nM
